Measurements as given in US12286439B2, “Inhibitors of ERK nuclear translocation” (Yeda Research and Development Co. Ltd., priority 2018, dated 2025).

Tests used:
Type in all cases: cell-based
[1] = system: c-Myc phosphorylation (nuclear target of ERK1/2); assay: Western blot, phosphorylated c-Myc; settings: 10 μM, 2 hours; TPA; both A2185 and HeLa cells
Description: (§1) CoIP assay was conducted using αERK1 (C-terminus) antibodies conjugated to protein A/G agarose beads. The precipitates were analyzed by Western blot using the indicated antibodies. Whole cell lysates (WCL) and αIgG-mouse (IgG) are shown as controls. […] Cell extracts were analyzed by Western blot with the indicated antibodies. […] The same extracts described in (B) were subjected to Western blot analysis using αpAkt Abs. The closest molecular weight marker (kDa) is shown on the right of all relevant panels.
(§2) Bars indicate average of 2 independent experiments done in triplicate ±SE. […] Empty squares represent individual data points of proliferation. Full squares indicate average proliferation of 2 independent experiments done in triplicate ±SE. […] Cell viability (as shown in FIGS. 8A and 8B) was measured by staining with methylene blue, and data presents proliferation normalized to DMSO control. […] Cell lysates were analyzed by Western blot with the corresponding antibodies. Closest molecular marker is indicated at the right of each panel.
(§3) Preparation of Cellular Extracts and Western Blotting:
(§4) Cells were grown to 70% confluence and serum starved (0.1% FCS, 16 hours). After treatments, cells were rinsed twice with ice-cold PBS−/− and scraped into RIPA buffer. […]

[2] = system: RSK1 phosphorylation (cytoplasmic target of ERK1/2); assay: Western blot, phosphorylated RSK1; settings: 10 μM, 2 hours; TPA; A2185 or HeLa cells
Description: as §1, §2, §3, §4

[3] = system: ERK1/2 nuclear translocation; assay: Determination of ERK1/2 localization by fluorescence microscopy after TPA stimulation; settings: 10 μM, 2 hours, TPA 100 nM, 15 minutes
Outline: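 HeLa, A2185 and A2352 melanoma cells treated with compounds for 2 h around TPA stimulation, then fixed (4% PFA), permeabilized and stained with anti-ERK antibodies, fluorescent secondaries and DAPI. Nuclear ERK1/2 localization scored by fluorescence microscopy (×40).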

[4] = system: Elk1 phosphorylation (nuclear target of ERK1/2); assay: Western blot, phosphorylated Elk1; settings: 10 μM, 2 hours; TPA; melanoma cell line A2185
Description: as §1, §2, §3, §4

[5] = system: ERK1/2 phosphorylated at the TEY activation loop motif; assay: Western blot, ERK1/2 activation loop (TEY) phosphorylation; settings: 10 μM, 2 hours; TPA; A2185 or HeLa cells
Description: as §1, §2, §3, §4

[6] = system: A2185, A2352, HeLa and MCF7 cells; assay: Viability assay (methylene blue), four cancer lines; settings: 72 hours, 1% FCS, in 3 or 4 cell lines, read-out: reduction of cell viability
Description: Four cancer cells, A2185, A2352, HeLa and MCF7 were grown in 1% FCS containing 10 μM of either EPE peptide, or Compounds Z56, Z1, Z2 or Z3, for 72 hours. Bars indicate average of 2 independent experiments done in triplicate ±SE. FIG. 8B presents dose response curves for Compounds Z56, Z1 and Z2. A2185 cells were grown in 1% FCS containing DMSO (0.1%) EPE or Scramble (Scr) peptide (10 μM), Compounds Z56, Z1, Z2, Z3 ([…]) or no treatment (FCS 1%) for 72 hours. Empty squares represent individual data points of proliferation. Full squares indicate average proliferation of 2 independent experiments done in triplicate ±SE. Bold horizontal line indicates arbitrary threshold (40%) for what is considered an active compound. Cell viability (as shown in FIGS. 8A and 8B) was measured by staining with methylene blue, and data presents proliferation normalized to DMSO control. […] Cell lysates were analyzed by Western blot with the corresponding antibodies. […]
Cells were seeded at low confluence into 24, 48 or 96-well plates in complete medium. […] Color was extracted by adding 0.1 M HCl (3 hours, 23° C.), and absorbance measured at 595 nm in an ELISA reader. For time course experiments, attached cells were fixed and measured at 0, 24, 48, 72 and 96 hours. […]

SMILES: O=C(OC1C=CS(=O)(=O)C1)c1ccccc1 (stereo not shown) [Compound Z2]
- levels of phosphorylated c-Myc [1]: decreased
- phosphorylation of the cytosolic target RSK1/2 [2]: none of Compounds Z56, Z1, Z2 or Z3 affected
- nuclear accumulation of ERK1/2 upon TPA stimulation ([3]; A2185 and A2352 cells): inhibited
- stimulated nuclear translocation of ERK1/2 ([3]; A2352, A2185 and HeLa cells): significantly reduced
- levels of phosphorylated Elk1 [4]: decreased significantly
- phosphorylation of the activation loop of ERK1/2 [5]: none of Compounds Z56, Z1, Z2 or Z3 affected
- cytotoxicity at 10 µM [6]: ~60%
